Test results as given in patent US11662342B2, “Barrier function measurements” (MIMETAS B.V., priority 2015, dated 2023).
Each block holds one molecule with its values, some of them ahead of it.

Experiments:
[1] = tested on: human proximal tubule cells (RPTEC); test: Drug induced loss of barrier integrity of human kidney proximal tubule (RPTEC), Kaplan-Meier plot; format: cell-based; settings: RPTEC tubules; increasing concentrations; imaged every hour for 60 hours; versus medium, vehicle control 1 and 2
Source text: After eight days in culture >95% of the seeded tubules were shown leak-tight by addition of FITC-dextran 150 kDa to the medium in the luminal compartment. Medium in the tubes was replaced with medium containing increasing concentrations of the renal toxicant amphotecerin B and the fluorescent FITC-dextran. […] IC indicates an inhibitor cocktail of 3 efflux transporter inhibitors.

MDCK tubules [2] = format: cell-based, canine
Source text: The 3 lane OrganoPlate® offers the unique possibility to add a compound from only the apical or the basolateral side of the tubular structure. […] Actively transported compounds can have directionality in the trans-cellular transport, as is for example the situation in the renal proximal tubules, where moving compounds specifically from the apical side of the tube to the basolateral side, or the other way around, is part of the renal filtering function. This implies toxic compounds that are actively transported by the proximal tubule cells can have a different effect depending on the location of exposure. The anti-cancer drug cisplatin is taken up by cells by the OCT-2 transporter that is expressed on the basal side of the epithelial monolayer. MDCK cells were seeded in the top channel of a 200 μm 3 lane OrganoPlate® against a collagen I ECM at 10E6 cells/mL. Three days after seeding MDCK tubules were exposed to increasing concentrations of cisplatin from either the apical or basal side by replacing the medium either in the top medium channel, or in the bottom medium channel, with medium with cisplatin. At the start of the exposure the medium in the top channel was also supplied with a fluorescent leakage marker, FITC-dextran 150 kDa.

Caco-2 tubules [3] = test: Loss of barrier function of gut tubule (Caco-2) exposed to aspirin (TRITC-dextran 150 kDa); format: cell-based, human; settings: for loss of barrier integrity: imaged every hour for 24 hours
Source text: FIG. 11 depicts the loss of barrier function of a gut tubule exposed to aspirin. […] However, the lack of data on concentrations with a maximum response hinders accurate EC50 estimation.

Caco-2 tubules [4] = test: Time-to-leak barrier integrity assay, human gut tubule (Caco-2) exposed to staurosporin (TRITC-dextran 150 kDa); settings: Caco-2 tubes; imaged every hour for 13 hours; normalized TRITC-dextran fluorescence
Description: The Caco-2 cell line (Sigma, human colon carcinoma cells) was seeded in a 400 μm 3 lane OrganoPlate® at 10E6 cells/mL, placed on side for cell-ECM attachment for 2 hours, and then placed on a modified rocker platform for continuous medium perfusion. Three days after seeding leak-tightness of the Caco-2 tubules was tested by replacing the medium in the top perfusion channel with medium containing 0.25 mg/mL TRITC dextran 150 kDa. […] Medium in the top medium channel was replaced with medium with TRITC-dextran and increasing concentrations of aspirin. Plate was placed in the ImageXpress Micro XLS under temperature and CO2 controlled conditions and imaged for fluorescent (TRITC) signal every hour for 13 hours. A dose response curve can be extracted at every time point from the time-lapse of the exposed Caco-2 tubes. GraphPad Prism 6 (GraphPad Software Inc., La Jolla, Calif.) was used to fit the dose response curve based on nonlinear regression of the logarithm of the compound concentration versus the normalized fluorescence assuming a top and bottom plateau at 0 and 100% fluorescence.

MDCK tubules [5] = test: Barrier integrity assay, MDCK tubules with staurosporin exposure (FITC-dextran 150 kDa leakage); format: cell-based, canine; settings: 0, 1, 4, 7 or 10 μM in top perfusion channel, imaged every hour for 15 hours
Description: MDCK (canine) cell line was seeded at 10*10^6 cells/mL in the top perfusion channel of a 400 μm 3-lane OrganoPlate® against a collagen I ECM (Cultrex, Amsbio, 3447-020-01, 4 mg/mL). 60 μL of medium was added to the medium inlet and outlet of the top perfusion channel. Plate was incubated on its side for 3 hours to allow cells to settle on top of the ECM. Three hours after seeding 60 μL medium was added to the medium inlet and outlet of the bottom perfusion channel and plate was placed on a rocker platform for continuous medium perfusion (angle 7°, tilt every 8 min). […] Volumes were 40 μL inlet/30 μL outlet in top perfusion channel, 0 μL inlet/0 μL outlet in the middle ECM channel, 20 μL inlet/20 μL outlet standard culture medium in the bottom perfusion channel. […]
Fluorescent signal intensity of the FITC-dextran 150 kDa was quantified in the top perfusion channel and in the gel channel of FIG. 4 using FIJI analysis software (Schindelin, J.; Arganda-Carreras, I. & Frise, E. et al. (2012), “Fiji: an open-source platform for biological-image analysis”, Nature methods 9(7): 676-682, PMID 22743772). […] The time-to-leakage value (e.g. 2 hours after compound addition) will have to be determined based on validation experiments to ensure maximal in vivo relevance. […]

LLC-PK1 tubules = test: Barrier integrity assay, LLC-PK1 tubules with staurosporin exposure (FITC-dextran 150 kDa leakage); format: cell-based, pig; settings: 0, 1, 5 or 10 μM in top perfusion channel, imaged every 15 min for 16 hours
Description: The integrity of a cellular barrier, cultivated for example as described in FIGS. 1 and 2, can be probed by replacing the medium in the perfusion channel by medium containing 500 μg/mL FITC-dextran 150 kDa (Sigma, 46946). A) If the cellular barrier is leak-tight the fluorescent signal will be contained in the perfusion channel, whereas in the microfluidic chip with no cells, just ECM in the gel channel, the fluorescent signal will enter the ECM and will saturate within minutes. The fluorescent signal in the perfusion and gel channel can be monitored real time using time-lapse fluorescent microscopy, as for example with the ImageXpress Micro (Molecular Devices). B) Fluorescent signal intensity of the FITC-dextran 150 kDa was quantified in the top perfusion channel and in the gel channel using FIJI analysis software (Schindelin, J.; Arganda-Carreras, I. & Frise, E. et al. (2012), “Fiji: an open-source platform for biological-image analysis”, Nature methods 9(7): 676-682, PMID 22743772). C) The intensity of the gel channel was divided by the intensity of the top perfusion channel and the ratio was plotted against the time after start of fluorescent reporter addition. Without a cellular barrier the ECM is saturated within minutes after dye addition whereas a ratio close to zero is maintained as long as the cellular barrier is intact. […]

Molecule: amphotecerin B
survival of tube integrity, exposed versus unexposed tubes [1]: significant difference

Molecule: N.N.[Cl][Pt][Cl] [cisplatin]
time-to-leak, tubes exposed from the basal side versus apical exposed tubes (MDCK tubules [2]): significantly earlier

loss of barrier integrity (Caco-2 tubules [3]; 3.7 mM): loss of barrier integrity | exposure time at which a 50% effect was observed (Caco-2 tubules [3]; 12 mM): 20 h | loss of barrier integrity (Caco-2 tubules [3]; 12 mM (12.12 mM)): clear loss of barrier integrity | exposure time at which a 50% effect was observed (Caco-2 tubules [3]; 40 mM): 10 h | loss of barrier integrity (Caco-2 tubules [3]; 40 mM): clear loss of barrier integrity
Molecule: CC(=O)Oc1ccccc1C(=O)O [aspirin]

Molecule: CN[C@@H]1C[C@H]2O[C@@](C)([C@@H]1OC)n1c3ccccc3c3c4c(c5c6ccccc6n2c5c31)C(=O)NC4 [staurosporin]
dose response curve of barrier leakage with increasing exposure times (Caco-2 tubules [4]): shift towards lower compound concentrations | integrity of the MDCK barrier with increasing concentrations (MDCK tubules [5]): breaks at an earlier time point | integrity of the LLC-PK1 barrier with increasing concentrations (LLC-PK1 tubules): breaks at an earlier time point
